Read-outs that look alike come from different tables or passages of the source.
Columns and labels:
[1] = test system: Human Dermal Fibroblast (HDF); experiment: MTT cytotoxicity assay, normal cells; type: cell-based; conditions: read-out: IC50 HDF
Experimental: (§1) Two different human breast cancer cell lines (MCF-7 and MDA-MB-231), lung cancer cell line (A-549) and normal cell (Human Dermal Fibroblast) were purchased from Pasture Institute of Iran, Tehran, Iran. The medium of RPMI 1640 (PAA, Germany) including sodium bicarbonate and N-hydroxyethylpiperazone-n-2-ethanesulfonic Acid (HEPES, Biosera, England) was used to maintain the cell lines. The medium was enriched with fetal bovine serum (FBS; Gibco, USA) and antibiotics. Then, incubated in air atmosphere enriched 5% CO2 at 37 °C. The cytotoxic activity of all fractions and compounds were examined by the MTT (3-[4,5-dimethylthiazole-2-yl]-2,5-diphenyltetrazolium bromide) (Sigma-Aldrich, USA) assay.
(§2) Cancer is the second leading cause of death and responsible for approximately 13% of mortality in the world. […] One of the efficient approaches to new drugs is screening herbal extracts. In the present study, S. macrosiphon was selected for the possible cytotoxic activity. For this purpose, different fractions of aerial parts of the plants including n-hexane, chloroform, ethyl acetate, and water-soluble fractions were screened towards lung cancer cell line (A549) and breast cancer cell lines (MCF-7 and MDA-MB-231) as well as normal cell, human dermal fibroblasts (HDF), using MTT assay comparing with etoposide as a standard drug (Table 2). The inhibitory concentration, 50% (IC50) values (µg /mL) were calculated by linear regression analysis, expressed in mean ± SD.

[2] = test system: MCF-7 human breast cancer cell line; experiment: MTT cytotoxicity assay, MCF-7; type: cell-based; conditions: for IC50: Homo sapiens; for selectivity index MCF-7: IC50 HDF / IC50 MCF-7
Experimental: as §1, §2

[3] = test system: A549 lung cancer cell line; experiment: MTT cytotoxicity assay, A549; type: cell-based, human; conditions: for IC50: Homo sapiens; for selectivity index A549: IC50 HDF / IC50 A549
Experimental: as §1, §2

[4] = test system: MDA-MB-231 human breast cancer cell line; experiment: MTT cytotoxicity assay, MDA-MB-231; type: cell-based; conditions: for IC50: Homo sapiens; for selectivity index MDA-MB-231: IC50 HDF / IC50 MDA-MB-231
Experimental: as §1, §2

[5] = set-up: method as in earlier work; conditions: earlier report; cited from earlier work
[6] = MDA-MB-231, read-out: IC50 MDA-MB-231
[7] = MTT assay, normal cells, isolated compounds
[8] = MCF7, MTT assay, isolated compounds, read-out: IC50 MCF-7
[9] = A549, MTT assay, isolated compounds, read-out: IC50 A549
[10] = MDA-MB-231, MTT assay, isolated compounds, read-out: IC50 MDA-MB-231

Row | melting point [°C] | SMILES | IC50 [1] [µM] | IC50 ([2]; MCF7, read-out: IC50 MCF-7) [µM] | selectivity index MCF-7 [2] | IC50 ([3]; A549, read-out: IC50 A549) [µM] | selectivity index A549 [3] | IC50 [4, 6] [µM] | selectivity index MDA-MB-231 [4] | IC50 [1, 7] [µM] | IC50 [2, 8] [µM] | IC50 [3, 9] [µM] | IC50 [4, 10] [µM] | cytotoxicity [5] | IC50 ([1]; MTT assay, normal cells, mean ± SD, fractions of S. macrosiphon) [µg/mL] | IC50 ([2]; MCF7, MTT assay, mean ± SD, fractions of S. macrosiphon, read-out: IC50 MCF-7) [µg/mL] | IC50 ([3]; A549, MTT assay, mean ± SD, fractions of S. macrosiphon, read-out: IC50 A549) [µg/mL] | IC50 ([4]; MDA-MB-231, MTT assay, mean ± SD, fractions of S. macrosiphon, read-out: IC50 MDA-MB-231) [µg/mL]
1 |  | C=C[C@]1(C)CCC2[C@@]3(C)CCCC(C)(C)C3CC[C@@]2(C)O1 (stereo partly drawn) [Compound 1, 13-epi manoyl oxide] | 338 ± 9.2 | 15.8 ± 0.35 | 21.4 | 19.4 ± 1.96 | 17.4 | 22.2 ± 1.72 | 15.2 |  |  |  |  |  |  |  |  | 
2 | 95 to 98 | C=C[C@]1(C)CCC2[C@@]3(C)CCCC(C)(C)C3[C@@H](O)C[C@@]2(C)O1 (stereo partly drawn) [Compound 2, 6α-hydroxy-13-epimanoyl oxide] |  |  |  |  |  |  |  | > 653 | 98 ± 11.3 | 170 ± 11.6 | 120 ± 5.09 |  |  |  |  | 
3 |  | COc1ccc(-c2cc(=O)c3c(O)cc(OC)cc3o2)cc1 [Compound 3, 5-hydroxy-7,4'-dimethoxyflavone] |  |  |  |  |  |  |  | > 971 | 428 ± 23.1 | 469 ± 22.8 | 470 ± 23.1 |  |  |  |  | 
4 |  | CC[C@H](CC[C@@H](C)[C@H]1CC[C@H]2[C@@H]3CC=C4C[C@@H](O)CC[C@]4(C)[C@H]3CC[C@]12C)C(C)C [Compound 4, β-sitosterol] |  | > 100 |  | > 100 |  | > 100 |  |  |  |  |  | no activity |  |  |  | 
5 |  | COc1cc([C@@H]2c3cc4c(cc3[C@@H](O[C@@H]3O[C@@H]5CO[C@@H](C)O[C@H]5[C@H](O)[C@H]3O)[C@H]3COC(=O)[C@H]23)OCO4)cc(OC)c1O [Etoposide, reference compound] |  |  | 4.2 |  | 5.6 |  | 4.6 | 158 ± 2.04 | 37.5 ± 0.66 | 28.2 ± 1.32 | 34.5 ± 0.36 |  | 92.7 ± 1.2 | 22.1 ± 0.39 | 16.6 ± 0.78 | 20.3 ± 0.21

Source: publication PMC7814726, “Phytochemical constituents and biological activities of Salvia macrosiphon Boiss” (BMC Chemistry, 2021)
